Like-named read-outs stand apart in the source and are kept apart here.
Key:
[1] = tested on: Pseudomonas aeruginosa PAO1 MB9798 (efflux+, IMP-1); details: ratio MITC95 PA 9798/MITC95 PA 9799; imipenem at 2 μg/mL
How it was run: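 Isogenic PAO1 pair (efflux+ MB9798, efflux− MB9799, both IMP-1) tested by microbroth MIC with fixed imipenem and/or ceftazidime, usually at CLSI breakpoint, plus fixed class A/C inhibitor against AmpC. MBL inhibitor titrated; concentration restoring susceptibility recorded and fold difference between strains taken as efflux extent.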

[2] = tested on: Serratia marcescens expressing IMP-1 (CL5741); type: cell-based; details: with imipenem 1 μg/ml, 95% inhibition of bacterial growth
Description: Antibiotic Potentiation Activity: Determination of Synergistic Concentration
The bacterial strains tested included the clinical strains Escherichia coli expressing NDM-1 (CLB30005, CLB30016), Serratia marcescens expressing IMP-1 (CL5741), and Klebsiella pneumoniae expressing VIM-1 (IHMA599644). Inhibitor activity was measured in the presence and absence of imipenem in a 384-well microplate.
The clinical strains CLB30016, CL5741 and IHMA599644 were grown on trypticase soy agar containing 5% sheep's blood. The bacteria on agar plates were incubated at 35° C. with humidity overnight. The following day, individual colonies from each clinical strain were picked and resuspended in 5 ml saline to attain an OD600 of 0.14, 0.11, 0.15 and 0.13, for CLB30016, CL5741 and IHMA599644, respectively. These were further diluted 1:100 into 1.1× CAMHB and used to inoculate the test wells as described below.
Imipenem in 10 mM 3-(N-morpholino)propanesulfonic acid (MOPS, pH 7) was stored in single use aliquots at −80° C. […] On the day of the assay, 4 μl of antibiotic was added to 45 ul of bacteria followed by 1 μl of test compound and mixed by pipetting and with an orbital shaker. The concentration of antibiotic used in the assay was 1 μg/ml. Microplates were covered and incubated at 35° C. for 22 hours to 24 hours. At the end of the incubation, absorbance was determined using a spectrophotometer.

## Cn1c(N)nc2c(-c3ccc(S(=O)(=O)NC[C@@H](O)CN)c(S(N)(=O)=O)c3-c3nn[nH]n3)cccc21 [Example 308, (S)-4-(2-amino-1-methyl-1H-benzo[d]imidazol-4-yl)-N1-(3-amino-2-hydroxypropyl)-3-(2H-tetrazol-5-yl)benzene-1,2-disulfonamide]
[1]
  Efflux ratio: 1.00
[2]
  Serratia marcescens (IMP-1) MITC95: 0.7813 µM

## Nc1nc2c(-c3ccc(S(=O)(=O)NC[C@]4(N)CCNC4)c(S(N)(=O)=O)c3-c3nn[nH]n3)cccc2[nH]1 [Example 250, (S)-4-(2-amino-1H-benzo[d]imidazol-4-yl)-N1-((3-aminopyrrolidin-3-yl)methyl)-3-(2H-tetrazol-5-yl)benzene-1,2-disulfonamide]
[1]
  Efflux ratio: 1.00
[2]
  Serratia marcescens (IMP-1) MITC95: 0.7813 µM

## NCCCCNS(=O)(=O)c1ccc(-c2cccc3[nH]c(N)nc23)c(-c2nn[nH]n2)c1S(N)(=O)=O [Example 258, 4-(2-amino-1H-benzo[d]imidazol-7-yl)-N1-(4-aminobutyl)-3-(2H-tetrazol-5-yl)benzene-1,2-disulfonamide]
[1]
  Efflux ratio: 1.00
[2]
  Serratia marcescens (IMP-1) MITC95: 0.7813 µM

## NCCNS(=O)(=O)c1ccc(-c2cccc3[nH]c([C@H](N)CO)nc23)c(-c2nn[nH]n2)c1S(N)(=O)=O [Example 330, (S)-4-(2-(1-amino-2-hydroxyethyl)-1H-benzo[d]imidazol-4-yl)-N1-(2-aminoethyl)-3-(2H-tetrazol-5-yl)benzene-1,2-disulfonamide]
[1]
  Efflux ratio: 1.00
[2]
  Serratia marcescens (IMP-1) MITC95: 1.563 µM

## NCCNS(=O)(=O)c1ccc(-c2cccn3ccnc23)c(-c2nn[nH]n2)c1S(N)(=O)=O [Example 361, N1-(2-aminoethyl)-4-(imidazo[1,2-a]pyridin-8-yl)-3-(2H-tetrazol-5-yl)benzene-1,2-disulfonamide]
[1]
  Efflux ratio: 1.00
[2]
  Serratia marcescens (IMP-1) MITC95: 0.7813 µM

## N[C@H]1C=C(c2ccc(S(=O)(=O)N[C@@H]3CCNC3)c(S(N)(=O)=O)c2-c2nn[nH]n2)CCC1 [Example 339, (R)-5′-amino-N4-((R)-pyrrolidin-3-yl)-2-(2H-tetrazol-5-yl)-2′,3′,4′,5′-tetrahydro-[1,1′-biphenyl]-3,4-disulfonamide]
[1]
  Efflux ratio: 4.00
[2]
  Serratia marcescens (IMP-1) MITC95: 1.563 µM

## CC[C@H](CN)NS(=O)(=O)c1ccc(-c2cccc3[nH]c(N)nc23)c(-c2nn[nH]n2)c1S(N)(=O)=O [Example 265, (R)-4-(2-amino-1H-benzo[d]imidazol-4-yl)-N1-(1-aminobutan-2-yl)-3-(2H-tetrazol-5-yl)benzene-1,2-disulfonamide]
[1]
  Efflux ratio: 1.00
[2]
  Serratia marcescens (IMP-1) MITC95: 0.7813 µM

## NCC(CN)NS(=O)(=O)c1ccc(-c2cccn3ccnc23)c(-c2nn[nH]n2)c1S(N)(=O)=O [Example 386, N1-(1,3-diaminopropan-2-yl)-4-(imidazo[1,2-a]pyridin-8-yl)-3-(2H-tetrazol-5-yl) benzene-1,2-disulfonamide]
[1]
  Efflux ratio: 1.00
[2]
  Serratia marcescens (IMP-1) MITC95: 1.563 µM

## NCCNS(=O)(=O)c1ccc(-c2cccc3ccc(N)nc23)c(-c2nn[nH]n2)c1S(N)(=O)=O [Example 355, N1-(2-aminoethyl)-4-(2-aminoquinolin-8-yl)-3-(2H-tetrazol-5-yl)benzene-1,2-disulfonamide]
[1]
  Efflux ratio: 1.00
[2]
  Serratia marcescens (IMP-1) MITC95: 0.7813 µM

## NC[C@@H](N)CNS(=O)(=O)c1ccc(-c2cnc3cc[nH]c3c2)c(-c2nn[nH]n2)c1S(N)(=O)=O [Example 378, (R)-N 1-(2,3-diaminopropyl)-4-(1H-pyrrolo[3,2-b]pyridin-6-yl)-3-(2H-tetrazol-5-yl)benzene-1,2-disulfonamide]
[1]
  Efflux ratio: 2.00
[2]
  Serratia marcescens (IMP-1) MITC95: 1.563 µM

## Nc1ccc2cccc(-c3ccc(S(=O)(=O)N[C@H]4CNC[C@H]4N)c(S(N)(=O)=O)c3-c3nn[nH]n3)c2n1 [Example 324, N1-((3S,4R)-4-aminopyrrolidin-3-yl)-4-(2-aminoquinolin-8-yl)-3-(1H-tetrazol-5-yl)benzene-1,2-disulfonamide]
[1]
  Efflux ratio: 1.00
[2]
  Serratia marcescens (IMP-1) MITC95: 0.7813 µM

## Nc1nc2c(-c3ccc(S(=O)(=O)NC[C@@H]4CCNC4)c(S(N)(=O)=O)c3-c3nn[nH]n3)cccc2[nH]1 [Example 263, (R)-4-(2-amino-1H-benzo[d]imidazol-4-yl)-N1-(pyrrolidin-3-ylmethyl)-3-(2H-tetrazol-5-yl)benzene-1,2-disulfonamide]
[1]
  Efflux ratio: 1.00
[2]
  Serratia marcescens (IMP-1) MITC95: 0.7813 µM

## N[C@@H]1CNC[C@@H]1NS(=O)(=O)c1ccc(-c2cccn3ccnc23)c(-c2nn[nH]n2)c1S(N)(=O)=O [Example 328, N1-((3S,4R)-4-aminopyrrolidin-3-yl)-4-(imidazo[1,2-a]pyridin-8-yl)-3-(2H-tetrazol-5-yl)benzene-1,2-disulfonamide]
[1]
  Efflux ratio: 1.00
[2]
  Serratia marcescens (IMP-1) MITC95: 1.563 µM

## CN1CC(NS(=O)(=O)c2ccc(-c3cccc4[nH]c(N)nc34)c(-c3nn[nH]n3)c2S(N)(=O)=O)C1 [Example 256, 4-(2-amino-1H-benzo[d]imidazol-4-yl)-N1-(1-methylazetidin-3-yl)-3-(2H-tetrazol-5-yl)benzene-1,2-disulfonamide]
[1]
  Efflux ratio: 1.00
[2]
  Serratia marcescens (IMP-1) MITC95: 0.7813 µM

## NC[C@@H](N)CNS(=O)(=O)c1ccc(-c2ccc(N)nc2)c(-c2nn[nH]n2)c1S(N)(=O)=O [Example 416, (R)-4-(6-aminopyridin-3-yl)-N^1-(2,3-diaminopropyl)-3-(2H-tetrazol-5-yl)benzene-1,2-disulfonamide]
[2]
  Serratia marcescens (IMP-1) MITC95: 1.563 µM

## C[N+]1(C)CC(NS(=O)(=O)c2ccc(-c3cccc4[nH]c(N)nc34)c(-c3nn[nH]n3)c2S(N)(=O)=O)C1.O=C([O-])O [Example 245, 3-(4-(2-Amino-1H-benzo[d]imidazol-4-yl)-2-sulfamoyl-3-(2H-tetrazol-5-yl)phenylsulfonamido)-1,1-dimethylazetidin-1-ium hydrogencarbonate]
[1]
  Efflux ratio: 1.00
[2]
  Serratia marcescens (IMP-1) MITC95: 1.563 µM

## Nc1nc2c(-c3ccc(S(=O)(=O)NC[C@H]4CCNC4)c(S(N)(=O)=O)c3-c3nn[nH]n3)cccc2[nH]1 [Example 259, (S)-4-(2-amino-1H-benzo[d]imidazol-4-yl)-N1-(pyrrolidin-3-ylmethyl)-3-(2H-tetrazol-5-yl)benzene-1,2-disulfonamide]
[1]
  Efflux ratio: 1.00
[2]
  Serratia marcescens (IMP-1) MITC95: 0.7813 µM

## C[C@@H](CN)NS(=O)(=O)c1ccc(-c2cc(F)cc3[nH]c(N)nc23)c(-c2nn[nH]n2)c1S(N)(=O)=O [Example 397, (S)-4-(2-amino-6-fluoro-1H-benzo[d]imidazol-4-yl)-N^1-(1-aminopropan-2-yl)-3-(2H-tetrazol-5-yl)benzene-1,2-disulfonamide]
[2]
  Serratia marcescens (IMP-1) MITC95: 0.7813 µM

## N[C@@H]1C=C(c2ccc(S(=O)(=O)N[C@@H]3CCNC3)c(S(N)(=O)=O)c2-c2nn[nH]n2)CCC1 [Example 340, (S)-5′-amino-N4-((R)-pyrrolidin-3-yl)-2-(2H-tetrazol-5-yl)-2′,3′,4′,5′-tetrahydro[1,1′-biphenyl]-3,4-disulfonamide]
[1]
  Efflux ratio: 4.00
[2]
  Serratia marcescens (IMP-1) MITC95: 1.563 µM

## Nc1nc2c(-c3ccc(S(=O)(=O)N[C@@H]4C[C@H]4N)c(S(N)(=O)=O)c3-c3nnn[nH]3)cccc2[nH]1 [Example 448, 4-(2-amino-1H-benzo[d]imidazol-4-yl)-N^1-((1R,2R)-2-aminocyclopropyl)-3-(1H-tetrazol-5-yl)benzene-1,2-disulfonamide]
[2]
  Serratia marcescens (IMP-1) MITC95: 1.563 µM

## NC[C@@H](O)CNS(=O)(=O)c1ccc(-c2ccc3nccn3c2)c(-c2nn[nH]n2)c1S(N)(=O)=O [Example 420, (R)-N^1-(3-amino-2-hydroxypropyl)-4-(imidazo[1,2-a]pyridin-6-yl)-3-(2H-tetrazol-5-yl)benzene-1,2-disulfonamide]
[2]
  Serratia marcescens (IMP-1) MITC95: 1.563 µM

## Nc1ccc(-c2ccc(S(=O)(=O)NCC3(O)CCNCC3)c(S(N)(=O)=O)c2-c2nn[nH]n2)cn1 [Example 492, 4-(6-aminopyridin-3-yl)-N1-((4-hydroxypiperidin-4-yl)methyl)-3-(2H-tetrazol-5-yl)benzene-1,2-disulfonamide]
[2]
  Serratia marcescens (IMP-1) MITC95: 1.563 µM

## Nc1ccc(-c2ccc(S(=O)(=O)N[C@H]3CCCNC3)c(S(N)(=O)=O)c2-c2nn[nH]n2)cn1 [Example 494, (S)-4-(6-aminopyridin-3-yl)-N1-(piperidin-3-yl)-3-(2H-tetrazol-5-yl)benzene-1,2-disulfonamide]
[2]; CL5741
  Serratia marcescens (IMP-1) MITC95: 1.563 µM

## NC[C@@H](CO)NS(=O)(=O)c1ccc(-c2ccc(N)nc2)c(-c2nn[nH]n2)c1S(N)(=O)=O [Example 409, (S)-N^1-(1-amino-3-hydroxypropan-2-yl)-4-(6-aminopyridin-3-yl)-3-(2H-tetrazol-5-yl)benzene-1,2-disulfonamide]
[2]
  Serratia marcescens (IMP-1) MITC95: 1.563 µM

Source: patent US10544130B2, “Metallo-beta-lactamase inhibitors” (priority 2015, dated 2020)
